This is an account of results in PubChem BioAssay (NCI).

Each structure is given as a SMILES string.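 How tested: cells in 96-well plates exposed to compound for 48 hours at five concentrations. GI50 = concentration required for 50% inhibition of growth. TGI marks complete inhibition of growth.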

Some test systems named below: SK-MEL-5 melanoma; HS 578T breast; UACC-257 melanoma; SK-MEL-2 melanoma; OVCAR-5 ovarian; HCT-15 colon; SF-295 CNS; SK-OV-3 ovarian.
Assay in all cases: inhibition of tumour cell growth, NCI panel, 48 h

In the case of `Cc1[nH]c2cc(F)ccc2c1-c1nc2c3cccnc3c3ncccc3c2[nH]1`, the GI50 was 0.169 µM in the test on SK-MEL-5 melanoma; 1.09 µM with HS 578T breast; 0.228 µM in the test with UACC-257 melanoma; 0.504 µM in the test with SK-MEL-2 melanoma; 0.573 µM with OVCAR-5 ovarian; 0.359 µM with HCT-15 colon. Further, in the test with SF-295 CNS, the GI50 was 0.253 µM. The TGI in the test with SK-MEL-5 melanoma was found to be 0.726 µM; with HS 578T breast it was 4.74 µM; with UACC-257 melanoma it was 0.833 µM; in the test on SK-MEL-2 melanoma, 1.75 µM; in the test on OVCAR-5 ovarian, 2.65 µM; in the test on HCT-15 colon it was 18.8 µM. The TGI in the test with SF-295 CNS came to 0.818 µM.
Take `CN1CCN(c2nc(-c3csc(-c4cccs4)n3)cc3ccccc23)CC1`: the GI50 with SK-MEL-5 melanoma was 1.71 µM; with HS 578T breast, 1.7 µM; with UACC-257 melanoma, 1.87 µM; with SK-MEL-2 melanoma it was 1.47 µM; in the test with OVCAR-5 ovarian it was 1.66 µM; with HCT-15 colon, 1.63 µM. The GI50 in the test with SF-295 CNS was 1.82 µM. Besides, the TGI with SK-MEL-5 melanoma amounted to 3.12 µM; with HS 578T breast, 4.34 µM; in the test on UACC-257 melanoma, 3.68 µM; with SK-MEL-2 melanoma, 3.48 µM; in the test on OVCAR-5 ovarian, 3.13 µM; in the test with HCT-15 colon, 3.15 µM. In addition, the TGI in the test with SF-295 CNS worked out at 3.39 µM.
On to `CC(C)(C)N/N=C(\C(=O)NC1=C(Cl)C(=O)c2ccccc2C1=O)C1C=CCS1(=O)=O` (stereo not given), for which the TGI with HS 578T breast was 64.8 µM; in the test on UACC-257 melanoma, 26.5 µM; in the test on SK-MEL-2 melanoma, 24.9 µM; with SK-OV-3 ovarian it was > 100 µM; in the test on OVCAR-5 ovarian, 35.5 µM; in the test on HCT-15 colon, 22.9 µM. For the same compound, in the test on SF-295 CNS, the TGI is 25.1 µM.
As for `O=Cc1ccc(-c2ccc(-c3nc4ccccc4s3)cc2)s1`, the GI50 in the test with SK-MEL-5 melanoma is 27.1 µM; in the test on UACC-257 melanoma, > 100 µM; in the test on SK-MEL-2 melanoma, > 100 µM; in the test with SK-OV-3 ovarian, > 100 µM; with OVCAR-5 ovarian, > 100 µM; in the test with HCT-15 colon, 39.8 µM. Further, the GI50 in the test on SF-295 CNS was 40.7 µM. The TGI in the test with SK-MEL-5 melanoma, in the test on UACC-257 melanoma, in the test with SK-MEL-2 melanoma, in the test on SK-OV-3 ovarian, in the test with OVCAR-5 ovarian and in the test on HCT-15 colon was > 100 µM throughout. Moreover, the TGI with SF-295 CNS is > 100 µM.
On to `C/C(=N\NC(=S)N1CCCCCC1)c1cccc2cccnc12`, for which the TGI in the test with HS 578T breast was > 100 µM; in the test with UACC-257 melanoma, > 31.1 µM; with SK-MEL-2 melanoma, > 100 µM; with SK-OV-3 ovarian it was > 81.5 µM; in the test on OVCAR-5 ovarian it was > 100 µM; in the test with HCT-15 colon it was > 21.9 µM. For the same compound, in the test on SF-295 CNS, the TGI is > 21 µM.
With `CC(=O)O[C@H]1CC[C@@]2(C)C(=C/C(=N/OCCN3CCCC3)[C@H]3[C@@H]4CC[C@H](OC(C)=O)[C@@]4(C)CC[C@@H]32)C1`, the GI50 is 17.3 µM in the test with SK-MEL-5 melanoma; 34.9 µM in the test on HS 578T breast; 26.3 µM in the test on SK-MEL-2 melanoma; 40.8 µM in the test on SK-OV-3 ovarian; 73.8 µM in the test with OVCAR-5 ovarian; 20.1 µM in the test with HCT-15 colon. The GI50 in the test on SF-295 CNS was 26.1 µM. Moreover, the TGI in the test with SK-MEL-5 melanoma is 31.9 µM; in the test with HS 578T breast, > 100 µM; in the test on SK-MEL-2 melanoma, 65 µM; in the test with SK-OV-3 ovarian, > 100 µM; in the test with OVCAR-5 ovarian, > 100 µM; in the test on HCT-15 colon it was 45 µM. The TGI in the test with SF-295 CNS is 66.1 µM.
Regarding `COC(=O)Cc1cc(=O)[nH]c2c1C(=O)CCC2`, the TGI in the test with SK-MEL-5 melanoma, with UACC-257 melanoma, in the test on SK-MEL-2 melanoma, with SK-OV-3 ovarian, with OVCAR-5 ovarian and in the test on HCT-15 colon was > 100 µM throughout. The TGI in the test on SF-295 CNS was > 100 µM.
As for `CCOc1ccc2c(c1)c(CC(=O)O)cn2C`, the TGI with HS 578T breast, with UACC-257 melanoma, in the test with SK-MEL-2 melanoma, in the test on SK-OV-3 ovarian, in the test on HCT-15 colon and with SF-295 CNS was > 100 µM in each case.
As to `COC(=O)C(C(=O)OC)C(Br)C(Br)C(Br)c1ccccc1` (stereo not given), the GI50 in the test with HS 578T breast was 18.4 µM; in the test on UACC-257 melanoma, 2.34 µM; in the test with SK-MEL-2 melanoma, 5.92 µM; in the test on SK-OV-3 ovarian, 23.6 µM; in the test on OVCAR-5 ovarian, 19.9 µM; with HCT-15 colon, 2.83 µM. The GI50 in the test with SF-295 CNS is 18.9 µM. The TGI with HS 578T breast turned out to be 62.8 µM; in the test on UACC-257 melanoma, 11 µM; with SK-MEL-2 melanoma, 19.2 µM; in the test with SK-OV-3 ovarian, 72.3 µM; with OVCAR-5 ovarian, 37.5 µM; with HCT-15 colon, 11 µM. The TGI with SF-295 CNS amounted to 37.3 µM.
With `Cc1nc2ccccc2nc1N=Nc1ccccc1`, the GI50 in the test on SK-MEL-5 melanoma was 16 µM; in the test on UACC-257 melanoma it was 25.2 µM; with SK-MEL-2 melanoma, 24 µM; with SK-OV-3 ovarian, 34.9 µM; in the test with OVCAR-5 ovarian it was 75.7 µM; in the test with HCT-15 colon, 16.3 µM. Also, in the test on SF-295 CNS, the GI50 was 6.38 µM. Further, the TGI is 30.1 µM with SK-MEL-5 melanoma; 73.4 µM in the test with UACC-257 melanoma; 61.3 µM in the test with SK-MEL-2 melanoma; > 100 µM in the test on SK-OV-3 ovarian; > 100 µM with OVCAR-5 ovarian; > 100 µM with HCT-15 colon. In addition, the TGI in the test with SF-295 CNS is > 100 µM.
Turning to `COC1CC(N)C(O)C(C)O1` (stereo not given), the TGI with SK-MEL-5 melanoma, with HS 578T breast, with UACC-257 melanoma, with SK-OV-3 ovarian, with OVCAR-5 ovarian and in the test on HCT-15 colon was > 100 µM throughout. Besides, in the test with SF-295 CNS, the TGI is > 100 µM.
`CCCCNc1ccc(Nc2ccccc2)cc1`: the GI50 with SK-MEL-5 melanoma is 2.78 µM; in the test with HS 578T breast, 5.11 µM; in the test with SK-OV-3 ovarian it was 12.6 µM; in the test on OVCAR-5 ovarian, 29 µM; in the test on HCT-15 colon, 21.3 µM; in the test on SF-295 CNS it was 4.63 µM. The TGI in the test on SK-MEL-5 melanoma is 10.1 µM; in the test on HS 578T breast, 73.7 µM; in the test with SK-OV-3 ovarian, 70.3 µM; in the test on OVCAR-5 ovarian, > 100 µM; in the test with HCT-15 colon, > 100 µM; in the test with SF-295 CNS, 64.4 µM.
